Laboratory results: EP0369388B1, “Hydroxy-1,2,3,4-tetrahydroaminoacridines, a process for their preparation and their use as medicaments” (HOECHST-ROUSSEL PHARMACEUTICALS INCORPORATED, priority 1988, dated 1990)
Where a name gives a salt, the structure may show the parent alone. Read-outs that look alike come from different tables or passages of the source.

What was measured:
acetylcholinesterase = acetylcholinesterase (Homo sapiens, UniProt P22303); assay: biochemical
Experimental: The ability to inhibit acetylchlinesterase was determined by the photometric method of Ellman et al., Biochem. pharmacol.

mice = assay: Dark Avoidance Assay (reversal of scopolamine induced memory deficit); type: in vivo
Experimental: This utility can also be ascertained by determining the ability of these compounds to restore cholinergically deficient memory in the Dark Avoidance Assay. In this assay mice are tested for their ability to remember an unpleasant stimulus for a period of 24 hours. A mouse is placed in a chamber that contains a dark compartment; a strong incadescent light drives it to the dark compartment, where an electric shock is administered through metal plates on the floor. The animal is removed from the testing apparatus and tested again, 24 hours later, for the ability to remember the electric shock.
If scopolamine, an anticholinergic that is known to cause memory impairment, is administered before an animal's initial exposure to the test chamber, the animal re-enters the dark compartment shortly after being placed in the test chamber 24 hours later. This effect of scopolamine is blocked by an active test compound, resulting in a greater interval before re-entry into the dark compartment.
The results for an active compound are expressed as the percent of a group of animals in which the effect of scopolamine is blocked, as manifested by an increased interval between being placed in the test chamber and re-entering the dark compartment.

[1] = Dose 5.0 mg/kg of body weight, s.c, mice, retest after 24 hours
[2] = Acetylcholinesterase Inhibition, read-out: IC50 (molar conc.)

Sequence of acetylcholinesterase (P22303 32-614): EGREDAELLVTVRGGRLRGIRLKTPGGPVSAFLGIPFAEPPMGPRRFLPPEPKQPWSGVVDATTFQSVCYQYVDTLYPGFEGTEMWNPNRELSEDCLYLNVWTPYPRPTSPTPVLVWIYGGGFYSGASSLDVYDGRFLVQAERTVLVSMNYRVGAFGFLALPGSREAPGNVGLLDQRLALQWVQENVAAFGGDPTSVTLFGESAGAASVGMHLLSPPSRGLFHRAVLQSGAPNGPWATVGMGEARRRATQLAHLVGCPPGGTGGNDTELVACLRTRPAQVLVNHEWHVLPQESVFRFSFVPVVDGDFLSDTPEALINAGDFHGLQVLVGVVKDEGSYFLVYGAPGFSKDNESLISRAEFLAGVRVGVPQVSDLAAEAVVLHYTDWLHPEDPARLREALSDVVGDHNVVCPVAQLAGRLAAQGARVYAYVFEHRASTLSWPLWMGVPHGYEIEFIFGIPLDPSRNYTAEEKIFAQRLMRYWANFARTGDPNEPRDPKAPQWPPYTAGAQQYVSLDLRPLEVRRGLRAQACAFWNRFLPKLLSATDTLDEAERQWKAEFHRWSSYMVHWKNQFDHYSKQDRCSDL

SMILES | IC50 (acetylcholinesterase) [µM] | IC50 (acetylcholinesterase; [2]) [µM] | also measured
Nc1c2c(nc3ccccc13)CCC(OCc1ccccc1)C2 (stereo not shown) [2-Benzyloxy-1,2,3,4-tetrahydro-9-acridinamine] | > 1000 |  | 
CCCCCCCCCCCC(=O)OC1CCc2nc3ccccc3c(N)c2C1 (stereo not shown) [2-Lauroyloxy-1,2,3,4-tetrahydro-9-acridinamine] | 160 |  | 
CCCCC(=O)OC1CCc2nc3ccccc3c(N)c2C1 (stereo not shown) [2-Valeryloxy-1,2,3,4-tetrahydro-9-acridinamine, fumarate] | 12 |  | 
CCCCCCCCCC(=O)OC1CCc2nc3ccccc3c(N)c2C1 (stereo not shown) [2-Decanoyloxy-1,2,3,4-tetrahydro-9-acridinamine, fumarate] | > 1000 |  | 
CCC(=O)OC1CCc2nc3ccccc3c(N)c2C1 (stereo not shown) [2-Propionyloxy-1,2,3,4-tetrahydro-9-acridinamine, fumarate hemihydrate] |  |  | % of Animals with Scopolamine Induced Memory Deficit Reversal (mice; [1]): 13%
Nc1c2c(nc3ccccc13)C(OCc1ccccc1)CCC2 (stereo not shown) [4-Benzyloxy-1,2,3,4-tetrahydro-9-acridinamine] | 820 |  | 
CCCCCCCCC(=O)OC1CCc2nc3ccccc3c(N)c2C1 (stereo not shown) [2-Nonanoyloxy-1,2,3,4-tetrahydro-9-acridinamine, fumarate] |  | > 1000 | 
CCCCCC(=O)OC1CCc2nc3ccccc3c(N)c2C1.O=C(O)/C=C/C(=O)O (stereo not shown) [2-Hexanoyloxy-1,2,3,4-tetrahydro-9-acridinamine, fumarate] |  | 19 | % of Animals with Scopolamine Induced Memory Deficit Reversal (mice; Dose 0.63 mg/kg of body weight, s.c, mice, retest after 24 hours): 25%
CN(C)C=Nc1c2c(nc3ccccc13)CCC(O)C2 (stereo not shown) [2-Hydroxy-N-(dimethylaminomethylene)-1,2,3,4-tetrahydro-9-acridinamine] |  | > 1000 | 
CCCC(=O)OC1CCc2nc3ccccc3c(N)c2C1 (stereo not shown) [2-Butyryloxy-1,2,3,4-tetrahydro-9-acridinamine, fumarate] | 4.8 |  | 
CCCCCCC(=O)OC1CCc2nc3ccccc3c(N)c2C1 (stereo not shown) [2-Heptanoyloxy-1,2,3,4-tetrahydro-9-acridinamine, fumarate] |  | 31 | 
CC(=O)OC1CCc2nc3ccccc3c(N)c2C1 (stereo not shown) [2-Acetoxy-1,2,3,4-tetrahydro-9-acridinamine] |  | 6.5 | % of Animals with Scopolamine Induced Memory Deficit Reversal (mice; [1]): 29%
CCCCCCCC(=O)OC1CCc2nc3ccccc3c(N)c2C1 (stereo not shown) [2-Octanoyloxy-1,2,3,4-tetrahydro-9-acridinamine, fumarate] | 23 |  | 
Nc1c2c(nc3ccccc13)C(O)CCC2 (stereo not shown) [9-Amino-1,2,3,4-tetrahydroacridinamin-4-ol, hemifumarate] |  | 1.9 | 
Nc1c2c(nc3ccccc13)CCC(O)C2.O=C(O)/C=C\C(=O)O (stereo not shown) [9-Amino-1,2,3,4-tetrahydroacridin-2-ol, maleate] |  | 5.3 | % of Animals with Scopolamine Induced Memory Deficit Reversal (mice; [1]): 20%
CNC(=O)Oc1ccc2c(c1)[C@]1(C)CCN(C)[C@@H]1N2C [Physostigmine, reference compound] |  |  | % of Animals with Scopolamine Induced Memory Deficit Reversal (mice; mouse, in vivo, 0.31 mg/kg): 20%
